Laboratory results reported in BigSolDB 2.1.

Nc1ccc(Sc2ccc([N+](=O)[O-])cc2)cc1
Conditions	solubility (mole fraction)
in chlorobenzene, 291.25 K	0.011
in chlorobenzene, 296.55 K	0.0133
in chlorobenzene, 301.75 K	0.0174
in chlorobenzene, 306.25 K	0.019
in chlorobenzene, 311.35 K	0.0225
in chlorobenzene, 316.65 K	0.0275
in chlorobenzene, 321.25 K	0.0314
in chloroform, 288.35 K	0.0218
in chloroform, 293.55 K	0.0264
in chloroform, 298.45 K	0.0307
in chloroform, 303.65 K	0.0361
in chloroform, 309.25 K	0.0433
in dichloromethane, 287.45 K	0.0244
in dichloromethane, 290.95 K	0.0275
in dichloromethane, 293.75 K	0.0299
in dichloromethane, 297.15 K	0.0339
in ethyl acetate, 290.45 K	0.0511
in ethyl acetate, 295.65 K	0.0575
in ethyl acetate, 300.45 K	0.063
in ethyl acetate, 305.65 K	0.0709
in ethyl acetate, 309.15 K	0.0766
in ethyl acetate, 313.65 K	0.0836
in ethyl acetate, 318.25 K	0.0911
in n-butanol, 292.55 K	0.0018
in n-butanol, 297.75 K	0.0024
in n-butanol, 302.65 K	0.0031
in n-butanol, 307.65 K	0.004
in n-butanol, 312.35 K	0.005
in n-butanol, 317.55 K	0.0061
in n-butanol, 322.25 K	0.0081
in toluene, 289.75 K	0.0183
in toluene, 294.55 K	0.0214
in toluene, 299.65 K	0.0241
in toluene, 304.75 K	0.0283
in toluene, 309.35 K	0.0337
in toluene, 314.55 K	0.0385
in toluene, 319.35 K	0.0448
in toluene, 324.65 K	0.0506
